From ChEMBL document CHEMBL4808241, “Synthesis and biological evaluation of 1,6-bis-triazole-2,3,4-tri-O-benzyl-α-d-glucopyranosides as a novel α-glucosidase inhibitor in the treatment of Type 2 diabetes” (Bioorg Med Chem Lett, 2021)
The source made the active and inactive calls. No cut-off for these calls is given here.

Target: not listed separately
Assay: Inhibition of Saccharomyces cerevisiae alpha-glucosidase

SMILES | IC50 [µM]
O=[N+]([O-])c1cccc(Cn2cc(COC[C@H]3O[C@H](OCc4cn(Cc5cccc([N+](=O)[O-])c5)nn4)[C@H](OCc4ccccc4)[C@@H](OCc4ccccc4)[C@@H]3OCc3ccccc3)nn2)c1 | 22.9
C[C@H]1O[C@H](O[C@H]2[C@H](O)[C@@H](O)[C@@H](O[C@H]3[C@H](O)[C@@H](O)C(O)O[C@@H]3CO)O[C@@H]2CO)[C@H](O)[C@@H](O)[C@@H]1N[C@H]1C=C(CO)[C@@H](O)[C@H](O)[C@H]1O (some centres undefined) [ACARBOSE] | 146
COc1ccc(OC)c(Cn2cc(COC[C@H]3O[C@H](OCc4cn(Cc5cc(OC)ccc5OC)nn4)[C@H](OCc4ccccc4)[C@@H](OCc4ccccc4)[C@@H]3OCc3ccccc3)nn2)c1 | 3.86
O=C1C=C(OCCCCCCn2cc(COC[C@H]3O[C@H](OCc4cn(CCCCCCOC5=CC(=O)Cc6ccccc65)nn4)[C@H](OCc4ccccc4)[C@@H](OCc4ccccc4)[C@@H]3OCc3ccccc3)nn2)c2ccccc2C1 | 20.8
O=c1ccc2cc(OCCCCCCn3cc(COC[C@H]4O[C@H](OCc5cn(CCCCCCOc6ccc7oc(=O)ccc7c6)nn5)[C@H](OCc5ccccc5)[C@@H](OCc5ccccc5)[C@@H]4OCc4ccccc4)nn3)ccc2o1 | 21.7
CCCCCCCC/C=C\CCCCCCCCn1cc(COC[C@H]2O[C@H](OCc3cn(CCCCCCCC/C=C\CCCCCCCC)nn3)[C@H](OCc3ccccc3)[C@@H](OCc3ccccc3)[C@@H]2OCc2ccccc2)nn1 | 14.1
CC(C)[C@@H]1CC[C@@H](C)C[C@H]1OC(=O)Cn1cc(COC[C@H]2O[C@H](OCc3cn(CC(=O)O[C@@H]4C[C@H](C)CC[C@H]4C(C)C)nn3)[C@H](OCc3ccccc3)[C@@H](OCc3ccccc3)[C@@H]2OCc2ccccc2)nn1 | 3.73
Cc1ccc(OCCn2cc(COC[C@H]3O[C@H](OCc4cn(CCOc5ccc(C)cc5)nn4)[C@H](OCc4ccccc4)[C@@H](OCc4ccccc4)[C@@H]3OCc3ccccc3)nn2)cc1 | 50.5
c1ccc(CO[C@@H]2[C@@H](OCc3ccccc3)[C@@H](OCc3cn(CCOc4ccc5ccccc5c4)nn3)O[C@H](COCc3cn(CCOc4ccc5ccccc5c4)nn3)[C@H]2OCc2ccccc2)cc1 | 13.9
O=[N+]([O-])c1ccc(Cn2cc(COC[C@H]3O[C@H](OCc4cn(Cc5ccc([N+](=O)[O-])cc5)nn4)[C@H](OCc4ccccc4)[C@@H](OCc4ccccc4)[C@@H]3OCc3ccccc3)nn2)cc1 | 53.3
c1ccc(CO[C@@H]2[C@@H](OCc3ccccc3)[C@@H](OCc3cn(CCOc4cccc5ccccc45)nn3)O[C@H](COCc3cn(CCOc4cccc5ccccc45)nn3)[C@H]2OCc2ccccc2)cc1 | 29.4
Fc1ccc(Cn2cc(COC[C@H]3O[C@H](OCc4cn(Cc5ccc(F)cc5)nn4)[C@H](OCc4ccccc4)[C@@H](OCc4ccccc4)[C@@H]3OCc3ccccc3)nn2)cc1 | 37.3

Results, then the molecule that gave them:

IC50 [µM] | SMILES
5.68 | O=C(Cn1cc(COC[C@H]2O[C@H](OCc3cn(CC(=O)OCc4ccc([N+](=O)[O-])cc4)nn3)[C@H](OCc3ccccc3)[C@@H](OCc3ccccc3)[C@@H]2OCc2ccccc2)nn1)OCc1ccc([N+](=O)[O-])cc1
9.98 | O=C(Cn1cc(COC[C@H]2O[C@H](OCc3cn(CC(=O)Oc4cccc5ccccc45)nn3)[C@H](OCc3ccccc3)[C@@H](OCc3ccccc3)[C@@H]2OCc2ccccc2)nn1)Oc1cccc2ccccc12
24.4 | c1ccc(CO[C@@H]2[C@@H](OCc3ccccc3)[C@@H](OCc3cn(CCOc4ccccc4)nn3)O[C@H](COCc3cn(CCOc4ccccc4)nn3)[C@H]2OCc2ccccc2)cc1
12.1 | c1ccc(CO[C@@H]2[C@@H](OCc3ccccc3)[C@@H](OCc3cn(Cc4ccccc4)nn3)O[C@H](COCc3cn(Cc4ccccc4)nn3)[C@H]2OCc2ccccc2)cc1

Test system: Saccharomyces cerevisiae
Assay: Inhibition of Saccharomyces cerevisiae alpha-glucosidase at 0.1 mg/ml

SMILES | inhibition
c1ccc(CO[C@@H]2[C@@H](OCc3ccccc3)[C@@H](OCc3cn(C(c4ccccc4)c4ccccc4)nn3)O[C@H](COCc3cn(C(c4ccccc4)c4ccccc4)nn3)[C@H]2OCc2ccccc2)cc1 | inactive
C=CCCCCCCCCCn1cc(COC[C@H]2O[C@H](OCc3cn(CCCCCCCCCC=C)nn3)[C@H](OCc3ccccc3)[C@@H](OCc3ccccc3)[C@@H]2OCc2ccccc2)nn1 | inactive
CCCCCCCCCCCCCn1cc(COC[C@H]2O[C@H](OCc3cn(CCCCCCCCCCCCC)nn3)[C@H](OCc3ccccc3)[C@@H](OCc3ccccc3)[C@@H]2OCc2ccccc2)nn1 | inactive
C=CCc1ccccc1OCCn1cc(COC[C@H]2O[C@H](OCc3cn(CCOc4ccccc4CC=C)nn3)[C@H](OCc3ccccc3)[C@@H](OCc3ccccc3)[C@@H]2OCc2ccccc2)nn1 | inactive
CCCCCCCCCCCCCCCCCCn1cc(COC[C@H]2O[C@H](OCc3cn(CCCCCCCCCCCCCCCCCC)nn3)[C@H](OCc3ccccc3)[C@@H](OCc3ccccc3)[C@@H]2OCc2ccccc2)nn1 | inactive

Results, then the molecule that gave them:

inhibition | SMILES
inactive | O=C(Cn1cc(COC[C@H]2O[C@H](OCc3cn(CC(=O)c4cc5ccccc5oc4=O)nn3)[C@H](OCc3ccccc3)[C@@H](OCc3ccccc3)[C@@H]2OCc2ccccc2)nn1)c1cc2ccccc2oc1=O
inactive | COc1ccc(OC)c(COC(=O)Cn2cc(COC[C@H]3O[C@H](OCc4cn(CC(=O)OCc5cc(OC)ccc5OC)nn4)[C@H](OCc4ccccc4)[C@@H](OCc4ccccc4)[C@@H]3OCc3ccccc3)nn2)c1
inactive | O=C(Cn1cc(COC[C@H]2O[C@H](OCc3cn(CC(=O)OCc4ccccc4)nn3)[C@H](OCc3ccccc3)[C@@H](OCc3ccccc3)[C@@H]2OCc2ccccc2)nn1)OCc1ccccc1
inactive | COc1cc(COC(=O)Cn2cc(COC[C@H]3O[C@H](OCc4cn(CC(=O)OCc5ccc(OCc6ccccc6)c(OC)c5)nn4)[C@H](OCc4ccccc4)[C@@H](OCc4ccccc4)[C@@H]3OCc3ccccc3)nn2)ccc1OCc1ccccc1
inactive | COc1cc(Cn2cc(COC[C@H]3O[C@H](OCc4cn(Cc5ccc(OCc6ccccc6)c(OC)c5)nn4)[C@H](OCc4ccccc4)[C@@H](OCc4ccccc4)[C@@H]3OCc3ccccc3)nn2)ccc1OCc1ccccc1
inactive | COc1ccc(COC(=O)Cn2cc(COC[C@H]3O[C@H](OCc4cn(CC(=O)OCc5ccc(OC)cc5)nn4)[C@H](OCc4ccccc4)[C@@H](OCc4ccccc4)[C@@H]3OCc3ccccc3)nn2)cc1
inactive | Cc1cc(COC(=O)Cn2cc(COC[C@H]3O[C@H](OCc4cn(CC(=O)OCc5ccc(Cl)c(C)c5)nn4)[C@H](OCc4ccccc4)[C@@H](OCc4ccccc4)[C@@H]3OCc3ccccc3)nn2)ccc1Cl
inactive | c1ccc(CCn2cc(COC[C@H]3O[C@H](OCc4cn(CCc5ccccc5)nn4)[C@H](OCc4ccccc4)[C@@H](OCc4ccccc4)[C@@H]3OCc3ccccc3)nn2)cc1
inactive | COc1cccc(COC(=O)Cn2cc(COC[C@H]3O[C@H](OCc4cn(CC(=O)OCc5cccc(OC)c5)nn4)[C@H](OCc4ccccc4)[C@@H](OCc4ccccc4)[C@@H]3OCc3ccccc3)nn2)c1
inactive | COc1cccc(Cn2cc(COC[C@H]3O[C@H](OCc4cn(Cc5cccc(OC)c5)nn4)[C@H](OCc4ccccc4)[C@@H](OCc4ccccc4)[C@@H]3OCc3ccccc3)nn2)c1
inactive | O=C(Cn1cc(COC[C@H]2O[C@H](OCc3cn(CC(=O)OC(c4ccccc4)c4ccccc4)nn3)[C@H](OCc3ccccc3)[C@@H](OCc3ccccc3)[C@@H]2OCc2ccccc2)nn1)OC(c1ccccc1)c1ccccc1

Organism: Homo sapiens
Assay: Competitive inhibition of alpha-glucosidase (unknown origin) by kinetics based analysis

SMILES | inhibition
CC(C)[C@@H]1CC[C@@H](C)C[C@H]1OC(=O)Cn1cc(COC[C@H]2O[C@H](OCc3cn(CC(=O)O[C@@H]4C[C@H](C)CC[C@H]4C(C)C)nn3)[C@H](OCc3ccccc3)[C@@H](OCc3ccccc3)[C@@H]2OCc2ccccc2)nn1 | Active

Test system: Saccharomyces cerevisiae
Assay: Potency index, ratio of acarbose IC50 to test compound IC50 for Saccharomyces cerevisiae alpha-glucosidase

SMILES | Ratio IC50
CC(C)[C@@H]1CC[C@@H](C)C[C@H]1OC(=O)Cn1cc(COC[C@H]2O[C@H](OCc3cn(CC(=O)O[C@@H]4C[C@H](C)CC[C@H]4C(C)C)nn3)[C@H](OCc3ccccc3)[C@@H](OCc3ccccc3)[C@@H]2OCc2ccccc2)nn1 | 39
